This passage reports Activity results from ChEMBL document CHEMBL2074183, “Purification of the human apical conjugate export pump MRP2 reconstitution and functional characterization as substrate-stimulated ATPase” (Eur J Biochem, 1999).

Each structure is given as a SMILES string.

For this series, the target named is ATP-binding cassette sub-family C member 2 (Homo sapiens, UniProt Q92887). The experiment in a line: TP_TRANSPORTER: ATP hydrolysis in MRP2 reconstituted into proteoliposome. The series is classed as functional, subcellular.
ATP-binding cassette sub-family C member 2, sequence (Q92887 whole entry): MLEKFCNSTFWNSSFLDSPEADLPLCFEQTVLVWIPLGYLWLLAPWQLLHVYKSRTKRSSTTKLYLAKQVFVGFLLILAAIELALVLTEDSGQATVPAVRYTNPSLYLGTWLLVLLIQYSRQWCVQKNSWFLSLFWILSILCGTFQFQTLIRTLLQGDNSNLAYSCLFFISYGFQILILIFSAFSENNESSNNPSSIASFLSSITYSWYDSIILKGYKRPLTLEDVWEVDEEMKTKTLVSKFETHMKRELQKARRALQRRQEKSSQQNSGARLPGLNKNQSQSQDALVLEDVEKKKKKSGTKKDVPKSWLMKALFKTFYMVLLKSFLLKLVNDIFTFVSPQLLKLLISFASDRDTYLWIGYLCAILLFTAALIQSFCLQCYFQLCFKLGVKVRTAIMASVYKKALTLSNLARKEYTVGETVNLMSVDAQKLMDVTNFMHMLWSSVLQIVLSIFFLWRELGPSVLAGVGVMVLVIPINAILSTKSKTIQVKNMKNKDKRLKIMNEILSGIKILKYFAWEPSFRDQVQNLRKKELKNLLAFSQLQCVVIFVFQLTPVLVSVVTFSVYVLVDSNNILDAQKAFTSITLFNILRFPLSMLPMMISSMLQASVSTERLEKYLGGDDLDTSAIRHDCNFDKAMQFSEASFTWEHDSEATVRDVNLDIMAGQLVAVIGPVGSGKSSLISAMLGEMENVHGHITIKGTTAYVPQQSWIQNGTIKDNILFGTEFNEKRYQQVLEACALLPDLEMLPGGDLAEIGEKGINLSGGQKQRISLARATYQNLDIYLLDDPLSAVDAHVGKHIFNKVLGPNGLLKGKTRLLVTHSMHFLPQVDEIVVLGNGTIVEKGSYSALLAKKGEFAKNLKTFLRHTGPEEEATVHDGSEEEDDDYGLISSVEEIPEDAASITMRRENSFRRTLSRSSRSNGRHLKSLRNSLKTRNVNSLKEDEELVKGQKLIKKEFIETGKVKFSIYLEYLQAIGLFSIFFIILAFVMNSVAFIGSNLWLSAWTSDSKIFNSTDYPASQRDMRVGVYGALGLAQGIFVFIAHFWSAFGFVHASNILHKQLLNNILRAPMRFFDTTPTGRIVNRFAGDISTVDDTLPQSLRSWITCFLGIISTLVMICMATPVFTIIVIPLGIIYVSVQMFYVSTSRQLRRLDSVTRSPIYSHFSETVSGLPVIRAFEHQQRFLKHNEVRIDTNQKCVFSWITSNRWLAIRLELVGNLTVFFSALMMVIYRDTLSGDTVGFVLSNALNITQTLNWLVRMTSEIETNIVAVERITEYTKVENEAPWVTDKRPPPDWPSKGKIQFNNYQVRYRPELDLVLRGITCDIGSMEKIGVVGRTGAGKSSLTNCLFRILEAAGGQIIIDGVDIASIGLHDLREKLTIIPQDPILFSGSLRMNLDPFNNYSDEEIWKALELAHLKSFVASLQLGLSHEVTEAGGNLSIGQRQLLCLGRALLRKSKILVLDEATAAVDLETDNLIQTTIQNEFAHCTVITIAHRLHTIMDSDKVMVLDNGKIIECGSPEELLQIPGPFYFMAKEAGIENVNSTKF

`CCCCCCCCCCSC[C@H](NC(=O)CC[C@H](N)C(=O)O)C(=O)NCC(=O)O`: the Activity result was “substrate [+]”. Regarding `N[C@@H](CCC(=O)N[C@@H](CS)C(=O)NCC(=O)O)C(=O)O` [GLUTATHIONE], the Activity entry was “substrate [+]”.
